From US10851083B2, “Benzoimidazoles as prolyl hydroxylase inhibitors” (Janssen Pharmaceutica NV, priority 2008, dated 2020)

Experiments:
Hep-3B cells = assay: Cellular assay: EPO secretion in Hep-3B cells; format: cell-based, human; parameters: EPO secretion, % of control compound: dose or concentration left out as unconfirmed; conditions: 24 h, EPO secretion as percentage of control compound 7-[(4-Chloro-phenyl)-(5-methyl-isoxazol-3-ylamino)-methyl]-quinolin-8-ol; for Cellular % EPO Stimulation: compound at 100 μM (10 μM or 100 μM); for EPO secretion, % of control compound: Homo sapiens, Hep3B, read-out: Cellular % EPO Stimulation
human PHD2181-417 = human PHD2181-417 (Homo sapiens (Human), UniProt Q9GZT9); assay: PHD2 enzyme activity assay ([14C]-succinic acid production); format: biochemical; conditions: PHD2181-417 polypeptide, HIF-1α peptide 10 μM, [5-14C]-2-oxoglutaric acid; 30 min pre-incubation; tested 10 μM to 3 nM;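 also: reaction ran 10 min with compound in Tris pH 7.5 buffer with catalase, DTT and ascorbate, labelled succinate freed of leftover 2-oxoglutarate by DNP precipitation, then beta counted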
Sequence of human PHD2181-417 (Q9GZT9 181-417): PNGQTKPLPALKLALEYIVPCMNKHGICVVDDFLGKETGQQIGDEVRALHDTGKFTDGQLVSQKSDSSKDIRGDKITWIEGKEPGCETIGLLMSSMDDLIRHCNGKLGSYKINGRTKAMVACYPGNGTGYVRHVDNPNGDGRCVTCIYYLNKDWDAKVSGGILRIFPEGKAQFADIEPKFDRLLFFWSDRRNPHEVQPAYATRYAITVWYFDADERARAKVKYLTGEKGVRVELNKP

| Structure (SMILES) | Cellular % EPO Stimulation (Hep-3B cells) | further results |
| --- | --- | --- |
| O=C(O)c1cnn(-c2nc3cc(-c4ccc(OCc5ccccc5)cc4)ccc3[nH]2)c1 [Example 16, 1-[5-(4-Benzyloxy-phenyl)-1H-benzoimidazol-2-yl]-1H-pyrazole-4-carboxylic Acid] | 6.97% | – |
| O=C(O)c1cnn(-c2nc3cc(-c4cccc(O)c4)ccc3[nH]2)c1 [Example 24, 1-[5-(3-Hydroxy-phenyl)-1H-benzoimidazol-2-yl]-1H-pyrazole-4-carboxylic Acid] | 11.15% | – |
| N#Cc1ccccc1-c1ccc(CS(=O)(=O)c2cc3nc(-n4cc(C(=O)O)cn4)[nH]c3cc2Cl)cc1 [Example 181, 1-[6-Chloro-5-(2′-cyano-biphenyl-4-ylmethanesulfonyl)-1H-benzoimidazol-2-yl]-1H-pyrazole-4-carboxylic Acid] | – | Enzyme pIC50 (human PHD2181-417): 7.7 |
| O=C(O)c1cnn(-c2nc3ccccc3[nH]2)c1 [Example 1, 1-(1H-Benzoimidazol-2-yl)-1H-pyrazole-4-carboxylic Acid] | 7.1% | – |
| O=C(O)c1cnn(-c2nc3cc(-c4ccc(O)cc4)ccc3[nH]2)c1 [Example 23, 1-[5-(4-Hydroxy-phenyl)-1H-benzoimidazol-2-yl]-1H-pyrazole-4-carboxylic Acid] | 6.49% | – |
| O=C(O)c1cnn(-c2nc3cc(SCc4ccc(C(F)(F)F)cc4C(F)(F)F)c(Cl)cc3[nH]2)c1 [Example 171, 1-[5-(2,4-Bis-trifluoromethyl-benzylsulfanyl)-6-chloro-1H-benzoimidazol-2-yl]-1H-pyrazole-4-carboxylic Acid] | – | Enzyme pIC50 (human PHD2181-417): 6.7 |
| O=C(O)c1cnn(-c2nc3cc(SCc4ccc(C(F)(F)F)cc4)c(Cl)cc3[nH]2)c1 [Example 170, 1-[6-Chloro-5-(4-trifluoromethyl-benzylsulfanyl)-1H-benzoimidazol-2-yl]-1H-pyrazole-4-carboxylic Acid] | – | Enzyme pIC50 (human PHD2181-417): 6.7 |
| O=C(O)c1cn(-c2nc3cc(Br)ccc3[nH]2)nc1C(F)(F)F [Example 19, 1-(5-Bromo-1H-benzoimidazol-2-yl)-3-trifluoromethyl-1H-pyrazole-4-carboxylic Acid] | 20.52% | – |
| CCCSc1cc2nc(-n3cc(C(=O)O)cn3)[nH]c2cc1F [Example 152, 1-(6-Fluoro-5-propylsulfanyl-1H-benzoimidazol-2-yl)-1H-pyrazole-4-carboxylic Acid] | – | EPO secretion, % of control compound (Hep-3B cells): 91.4% |
| O=C(O)c1cnn(-c2nc3cc(C(F)(F)F)c(F)cc3[nH]2)c1 [Example 129, 1-(6-Fluoro-5-trifluoromethyl-1H-benzoimidazol-2-yl)-1H-pyrazole-4-carboxylic Acid] | – | EPO secretion, % of control compound (Hep-3B cells): 70.8% |
| O=C(O)c1cnn(-c2nc3c(Cl)cc(C(F)(F)F)cc3[nH]2)c1 [Example 8, 1-(4-Chloro-6-trifluoromethyl-1H-benzoimidazol-2-yl)-1H-pyrazole-4-carboxylic Acid] | 20.97% | – |
| O=C(O)c1cnn(-c2nc3cc(C(F)(F)F)ccc3[nH]2)c1 [Example 3, 1-(5-Trifluoromethyl-1H-benzoimidazol-2-yl)-1H-pyrazole-4-carboxylic Acid] | – | EPO secretion, % of control compound (Hep-3B cells): 110% |
| Cc1cc2nc(-n3cc(C(=O)O)cn3)[nH]c2cc1C [Example 5, 1-(5,6-Dimethyl-1H-benzoimidazol-2-yl)-1H-pyrazole-4-carboxylic Acid] | 2.1% | – |
| O=C(O)c1cnn(-c2nc3cc(-c4cccc(OCc5cccc(Cl)c5)c4)ccc3[nH]2)c1 [Example 12, 1-{5-[3-(3-Chloro-benzyloxy)-phenyl]-1H-benzoimidazol-2-yl}-1H-pyrazole-4-carboxylic Acid] | 8.76% | – |
| O=C(O)c1cnn(-c2nc3cc(-c4cccc(OCc5ccccc5)c4)ccc3[nH]2)c1 [Example 15, 1-[5-(3-Benzyloxy-phenyl)-1H-benzoimidazol-2-yl]-1H-pyrazole-4-carboxylic Acid] | 10.77% | – |
| O=C(O)c1cnn(-c2nc3cc(-c4cccc(C(F)(F)F)c4)ccc3[nH]2)c1 [Example 17, 1-[5-(3-Trifluoromethyl-phenyl)-1H-benzoimidazol-2-yl]-1H-pyrazole-4-carboxylic Acid] | 5.8% | – |
| O=C(O)c1cnn(-c2nc3cc(Br)ccc3[nH]2)c1 [Example 6, 1-(5-Bromo-1H-benzoimidazol-2-yl)-1H-pyrazole-4-carboxylic Acid] | 9.91% | – |
| Cc1nn(-c2nc3cc(Br)ccc3[nH]2)c(C)c1C(=O)O [Example 21, 1-(5-Bromo-1H-benzoimidazol-2-yl)-3,5-dimethyl-1H-pyrazole-4-carboxylic Acid] | 7.24% | – |
| Cc1ccc2[nH]c(-n3cc(C(=O)O)cn3)nc2c1C [Example 10, 1-(4,5-Dimethyl-1H-benzoimidazol-2-yl)-1H-pyrazole-4-carboxylic Acid] | 10.7% | – |
| O=C(O)c1cnn(-c2nc3cc(OC(F)(F)F)cc(Br)c3[nH]2)c1 [Example 29, 1-(7-Bromo-5-trifluoromethoxy-1H-benzoimidazol-2-yl)-1H-pyrazole-4-carboxylic Acid] | – | EPO secretion, % of control compound (Hep-3B cells): 57.5% |
| COc1cc2nc(-n3cc(C(=O)O)cn3)[nH]c2cc1OC [Example 9, 1-(5,6-Dimethoxy-1H-benzoimidazol-2-yl)-1H-pyrazole-4-carboxylic Acid] | 4.26% | – |
| O=C(O)c1cnn(-c2nc3cc(OC(F)(F)F)ccc3[nH]2)c1 [Example 11, 1-(5-Trifluoromethoxy-1H-benzoimidazol-2-yl)-1H-pyrazole-4-carboxylic Acid] | 123.68% | – |
| COc1ccc2[nH]c(-n3cc(C(=O)O)cn3)nc2c1 [Example 7, 1-(5-Methoxy-1H-benzoimidazol-2-yl)-1H-pyrazole-4-carboxylic Acid] | 16.8% | – |
| O=C(O)c1cnn(-c2nc3cc(-c4ccc(Cl)c(Cl)c4)ccc3[nH]2)c1 [Example 18, 1-[5-(3,4-Dichloro-phenyl)-1H-benzoimidazol-2-yl]-1H-pyrazole-4-carboxylic Acid] | 15.3% | – |
| Cc1c(Br)cc2nc(-n3cc(C(=O)O)cn3)[nH]c2c1C [Example 26, 1-(5-Bromo-6,7-dimethyl-1H-benzoimidazol-2-yl)-1H-pyrazole-4-carboxylic Acid] | 11.9% | – |
| O=C(O)c1cnn(-c2nc3cc(-c4cccc(OCc5ccc(Cl)cc5)c4)ccc3[nH]2)c1 [Example 14, 1-{5-[3-(4-Chloro-benzyloxy)-phenyl]-1H-benzoimidazol-2-yl}-1H-pyrazole-4-carboxylic Acid] | – | EPO secretion, % of control compound (Hep-3B cells): 20.1% |
| O=C(O)c1cnn(-c2nc3cc(-c4cccc(OCc5ccccc5Cl)c4)ccc3[nH]2)c1 [Example 13, 1-{5-[3-(2-Chloro-benzyloxy)-phenyl]-1H-benzoimidazol-2-yl}-1H-pyrazole-4-carboxylic Acid] | 18% | – |
| O=C(O)c1cnn(-c2nc3cc(Cl)ccc3[nH]2)c1 [Example 25, 1-(5-Chloro-1H-benzoimidazol-2-yl)-1H-pyrazole-4-carboxylic Acid] | 71.87% | – |
| O=C(O)c1cnn(-c2nc3cc(C(F)(F)F)c(Cl)cc3[nH]2)c1 [Example 30, 1-(6-Chloro-5-trifluoromethyl-1H-benzoimidazol-2-yl)-1H-pyrazole-4-carboxylic Acid] | – | EPO secretion, % of control compound (Hep-3B cells): 129% |
